This note sets out measurements from patent US11028078B2 (The Johns Hopkins University, priority 2011, dated 2021).

Where two headings read alike, the source gives them in different places.

The subject of one data set is HUVEC. The experiment in a line: HUVEC proliferation assay ([3H]thymidine incorporation). In kind it is cell-based, human. Particulars: HUVEC; for IC50: Homo sapiens; for Proliferation (IC50/IC50 Itra): Table 7, relative to itraconazole. The method, boiled down:
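Pooled HUVEC at passage eight or lower, grown in EGM-2 medium; proliferation measured by [3H]thymidine incorporation as in an earlier published protocol.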
In general terms: Uptake of a labelled nucleoside into DNA is a usual measure of proliferation.

A further data set addresses T1, CYP3A4 (Homo sapiens, UniProt P08684).
T1 construct: purchased ThermoFisher P2857; host or cells: baculosomes
Briefly: CYP3A4 enzyme assay (Vivid CYP3A4 Green Screening Kit). The data set is classed as in vitro ADME. To be noted: for CYP3A4 Inhibition (compared to intracozanole at 1 μm): % enzyme inhibition at 1 μM drug / % enzyme inhibition at 1 μM itraconazole; for CYP3A4 inhibition in the initial screening: 1 μM. As to the method:
And CYP3A4 inhibition was initially determined using a cell-free fluorescence-based assay at a final concentration of 1 μM (Table 7).
CYP3A4 enzyme assay. CYP3A4 enzyme activity was tested using Vivid™ CYP3A4 Green Screening Kit (ThermoFisher, #P2857) using the manufacturer's protocol. Briefly, CYP3A4 baculosomes and drugs were incubated 10 min at 37° C. Then Vivid® Substrates were added and the fluorescence (ex/em:485/520) were read every 1 min for 60 minute.

Setting [1] is: 3H thymidine incorporation, in μM, read-out: Proliferation IC50.
Where [2] appears, read: read-out: IC50 for inhibition of HUVEC proliferation.

T1 sequence (P08684 whole entry): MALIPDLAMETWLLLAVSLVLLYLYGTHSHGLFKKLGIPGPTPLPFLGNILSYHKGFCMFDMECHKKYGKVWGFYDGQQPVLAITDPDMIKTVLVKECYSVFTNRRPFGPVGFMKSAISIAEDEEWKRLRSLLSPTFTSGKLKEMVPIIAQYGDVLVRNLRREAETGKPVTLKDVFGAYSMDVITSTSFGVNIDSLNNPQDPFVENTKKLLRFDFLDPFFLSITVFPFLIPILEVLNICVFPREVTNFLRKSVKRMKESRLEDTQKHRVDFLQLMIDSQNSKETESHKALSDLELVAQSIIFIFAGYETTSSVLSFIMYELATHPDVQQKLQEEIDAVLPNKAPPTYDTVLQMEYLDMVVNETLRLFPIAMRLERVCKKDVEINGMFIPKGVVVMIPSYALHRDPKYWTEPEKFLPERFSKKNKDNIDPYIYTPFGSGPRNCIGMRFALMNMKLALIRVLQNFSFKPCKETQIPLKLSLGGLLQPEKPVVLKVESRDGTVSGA

On to `CCC(C)n1ncn(-c2ccc(N3CCN(c4ccc(OC[C@@H]5CO[C@@](Cn6cnc(C)c6)(c6ccc(Cl)cc6Cl)O5)cc4)CC3)cc2)c1=O` (stereo partly drawn) [Compound 238, 1-sec-butyl-4-(4-(4-(4-(((2S,4R)-2-(2,4-dichlorophenyl)-2-((4-methyl-H-imidazol-1-yl)methyl)-1,3-dioxolan-4-yl)methoxy)phenyl)piperazin-1-yl)phenyl)-1H-1,2,4-triazol-5(4H)-one], for which the IC50 with HUVEC (setting [1]) turned out to be 0.102 µM. Besides, at CYP3A4, the “CYP3A4 Inhibition (compared to intracozanole at 1 μm)” value is 1.18.
With `CCC(C)n1ncn(-c2ccc(N3CCN(c4ccc(OC[C@@H]5CO[C@@](Cn6cc(C(F)(F)F)nc6C)(c6ccc(Cl)cc6Cl)O5)cc4)CC3)cc2)c1=O` (stereo partly drawn) [Compound 239, 1-(sec-butyl)-4-(4-(4-(4-(((2S,4R)-2-(2,4-dichlorophenyl)-2-((2-methyl-4-(trifluoromethyl)-1H-imidazol-1-yl)methyl)-1,3-dioxolan-4-yl)methoxy)phenyl)piperazin-1-yl)phenyl)-1H-1,2,4-triazol-5(4H)-one], in the data set with HUVEC (setting [1]), the IC50 came to 0.441 µM. In addition, on CYP3A4, the “CYP3A4 inhibition in the initial screening” value is recorded as “eliminated” and the “CYP3A4 Inhibition (compared to intracozanole at 1 μm)” value was “No inhibition”.
As for `CCC(C)n1ncn(-c2ccc(N3CCN(c4ccc(OC[C@@H]5CO[C@@](Cn6cc(C)nc6C)(c6ccc(Cl)cc6Cl)O5)cc4)CC3)cc2)c1=O` (stereo partly drawn) [Compound 240, 1-(sec-butyl)-4-(4-(4-(4-(((2S,4R)-2-(2,4-dichlorophenyl)-2-((2,4-dimethyl-1H-imidazol-1-yl)methyl)-1,3-dioxolan-4-yl)methoxy)phenyl)piperazin-1-yl)phenyl)-1H-1,2,4-triazol-5(4H)-one], the IC50 in the data set with HUVEC (setting [1]) worked out at 0.492 µM. Also, the “CYP3A4 Inhibition (compared to intracozanole at 1 μm)” value at CYP3A4 came to 0.45.
On to `CCC(C)n1ncn(-c2ccc(N3CCN(c4ccc(OC[C@@H]5CO[C@@](Cn6c(C)cnc6C)(c6ccc(Cl)cc6Cl)O5)cc4)CC3)cc2)c1=O` (stereo partly drawn) [Compound 241, 1-(sec-butyl)-4-(4-(4-(4-(((2S,4R)-2-(2,4-dichlorophenyl)-2-((2,5-dimethyl-1H-imidazol-1-yl)methyl)-1,3-dioxolan-4-yl)methoxy)phenyl)piperazin-1-yl)phenyl)-1H-1,2,4-triazol-5(4H)-one], for which the “Proliferation (IC50/IC50 Itra)” value in the data set on HUVEC came out at 3.1. Further, the IC50 in the data set with HUVEC (setting [1]) turned out to be 0.492 µM. Moreover, the “CYP3A4 Inhibition (compared to intracozanole at 1 μm)” value at CYP3A4 is given as 0.27.
With `CCc1nccn1C[C@@]1(c2ccc(Cl)cc2Cl)OC[C@@H](COc2ccc(N3CCN(c4ccc(-n5cnn(C(C)CC)c5=O)cc4)CC3)cc2)O1` (stereo partly drawn) [Compound 243, 1-(sec-butyl)-4-(4-(4-(4-(((2S,4R)-2-(2,4-dichlorophenyl)-2-((2-ethyl-1H-imidazol-1-yl)methyl)-1,3-dioxolan-4-yl)methoxy)phenyl)piperazin-1-yl)phenyl)-1H-1,2,4-triazol-5(4H)-one], in the data set with HUVEC (setting [1]), the IC50 was found to be 0.225 µM. The “CYP3A4 Inhibition (compared to intracozanole at 1 μm)” value on CYP3A4 was determined as 0.08.
For the compound `CCC(C)n1ncn(-c2ccc(N3CCN(c4ccc(OC[C@@H]5CO[C@@](Cn6ccnc6C(C)C)(c6ccc(Cl)cc6Cl)O5)cc4)CC3)cc2)c1=O` (stereo partly drawn) [Compound 245, 1-sec-butyl-4-(4-(4-(4-(((2S,4R)-2-(2,4-dichlorophenyl)-2-((2-isopropyl-1H-imidazol-1-yl)methyl)-1,3-dioxolan-4-yl)methoxy)phenyl)piperazin-1-yl)phenyl)-1H-1,2,4-triazol-5(4H)-one], the “Proliferation (IC50/IC50 Itra)” value in the data set on HUVEC is on record as 0.4. In the data set with HUVEC (setting [1]), the IC50 amounted to 0.068 µM. The “CYP3A4 Inhibition (compared to intracozanole at 1 μm)” value on CYP3A4 is reported as 0.07.
Regarding `CCC(C)n1ncn(-c2ccc(N3CCN(c4ccc(OC[C@@H]5CO[C@@](Cn6ccnc6-c6ccccc6)(c6ccc(Cl)cc6Cl)O5)cc4)CC3)cc2)c1=O` (stereo partly drawn) [Compound 246, 1-sec-butyl-4-(4-(4-(4-(((2S,4R)-2-(2,4-dichlorophenyl)-2-((2-phenyl-1H-imidazol-1-yl)methyl)-1,3-dioxolan-4-yl)methoxy)phenyl)piperazin-1-yl)phenyl)-1H-1,2,4-triazol-5(4H)-one], the IC50 in the data set with HUVEC (setting [1]) was 0.136 µM. In addition, the “CYP3A4 Inhibition (compared to intracozanole at 1 μm)” value on CYP3A4 turned out to be 0.27.
For the compound `CCC(C)n1ncn(-c2ccc(N3CCN(c4ccc(OC[C@@H]5CO[C@@](Cn6ncnn6)(c6ccc(Cl)cc6Cl)O5)cc4)CC3)cc2)c1=O` (stereo partly drawn) [Compound 249, 4-(4-(4-(4-(((2S,4R)-2-((2H-tetrazol-2-yl)methyl)-2-(2,4-dichlorophenyl)-1,3-dioxolan-4-yl)methoxy)phenyl)piperazin-1-yl)phenyl)-1-sec-butyl-1H-1,2,4-triazol-5(4H)-one], the “Proliferation (IC50/IC50 Itra)” value in the data set with HUVEC turned out to be 0.6. In the data set on HUVEC (setting [1]), the IC50 was determined as 0.102 µM. Further, the “CYP3A4 Inhibition (compared to intracozanole at 1 μm)” value on CYP3A4 worked out at 0.2.
Take `CCC(C)n1ncn(-c2ccc(N3CCN(c4ccc(OC[C@@H]5CO[C@@](Cn6cnc(C)n6)(c6ccc(Cl)cc6Cl)O5)cc4)CC3)cc2)c1=O` (stereo partly drawn) [Compound 250, 1-sec-butyl-4-(4-(4-(4-(((2S,4R)-2-(2,4-dichlorophenyl)-2-((3-methyl-1H-1,2,4-triazol-1-yl)methyl)-1,3-dioxolan-4-yl)methoxy)phenyl)piperazin-1-yl)phenyl)-1H-1,2,4-triazol-5(4H)-one]: the IC50 worked out at 0.27 µM in the data set on HUVEC (setting [2]) and 0.272 µM in the data set with HUVEC (setting [1]). The “CYP3A4 Inhibition (compared to intracozanole at 1 μm)” value at CYP3A4 is listed as 0.36.
In the case of `CCC(C)n1ncn(-c2ccc(N3CCN(c4ccc(OC[C@@H]5CO[C@@](Cn6cnc(C(F)(F)F)n6)(c6ccc(Cl)cc6Cl)O5)cc4)CC3)cc2)c1=O` (stereo partly drawn) [Compound 251, 1-sec-butyl-4-(4-(4-(4-(((2S,4R)-2-(2,4-dichlorophenyl)-2-((3-(trifluoromethyl)-1H-1,2,4-triazol-1-yl)methyl)-1,3-dioxolan-4-yl)methoxy)phenyl)piperazin-1-yl)phenyl)-1H-1,2,4-triazol-5(4H)-one], the IC50 in the data set on HUVEC (setting [2]) came out at 0.27 µM. Moreover, the IC50 in the data set on HUVEC (setting [1]) is 0.272 µM. Besides, at CYP3A4, the “CYP3A4 inhibition in the initial screening” value is recorded as “eliminated CYP3A4 inhibition” and the “CYP3A4 Inhibition (compared to intracozanole at 1 μm)” value was “No inhibition”.
Take `CCC(C)n1ncn(-c2ccc(N3CCN(c4ccc(OC[C@@H]5CO[C@@](Cn6nnnc6C)(c6ccc(Cl)cc6Cl)O5)cc4)CC3)cc2)c1=O` (stereo partly drawn) [Compound 252, 1-sec-butyl-4-(4-(4-(4-(((2S,4R)-2-(2,4-dichlorophenyl)-2-((5-methyl-1H-tetrazol-1-yl)methyl)-1,3-dioxolan-4-yl)methoxy)phenyl)piperazin-1-yl)phenyl)-1H-1,2,4-triazol-5(4H)-one]: in the data set on HUVEC (setting [1]), the IC50 was determined as 0.101 µM. The “CYP3A4 Inhibition (compared to intracozanole at 1 μm)” value on CYP3A4 is 0.08.
As to `CCC(C)n1ncn(-c2ccc(N3CCN(c4ccc(OC[C@@H]5CO[C@@](Cn6nnnc6-c6ccccc6)(c6ccc(Cl)cc6Cl)O5)cc4)CC3)cc2)c1=O` (stereo partly drawn) [Compound 253, 1-sec-butyl-4-(4-(4-(4-(((2S,4R)-2-(2,4-dichlorophenyl)-2-((5-phenyl-1H-tetrazol-1-yl)methyl)-1,3-dioxolan-4-yl)methoxy)phenyl)piperazin-1-yl)phenyl)-1H-1,2,4-triazol-5(4H)-one], the IC50 with HUVEC (setting [1]) was 0.119 µM. Moreover, the “CYP3A4 Inhibition (compared to intracozanole at 1 μm)” value at CYP3A4 is 0.22.
On to `CCC(C)n1ncn(-c2ccc(N3CCN(c4ccc(OC[C@@H]5CO[C@@](CBr)(c6ccc(Cl)cc6Cl)O5)cc4)CC3)cc2)c1=O` (stereo partly drawn) [Compound 257, 4-(4-(4-(4-(((2S,4R)-2-(bromomethyl)-2-(2,4-dichlorophenyl)-1,3-dioxolan-4-yl)methoxy)phenyl)piperazin-1-yl)phenyl)-1-sec-butyl-1H-1,2,4-triazol-5(4H)-one], for which the IC50 with HUVEC (setting [1]) worked out at 0.512 µM. Also, on CYP3A4, the “CYP3A4 Inhibition (compared to intracozanole at 1 μm)” value came to 0.03.
Take `CCC(C)n1ncn(-c2ccc(N3CCN(c4ccc(OC[C@@H]5CO[C@@](CC6CCCC6)(c6ccc(Cl)cc6Cl)O5)cc4)CC3)cc2)c1=O` (stereo partly drawn) [Compound 261, 1-sec-butyl-4-(4-(4-(4-(((2R,4R)-2-(cyclopentylmethyl)-2-(2,4-dichlorophenyl)-1,3-dioxolan-4-yl)methoxy)phenyl)piperazin-1-yl)phenyl)-1H-1,2,4-triazol-5(4H)-one]: the IC50 in the data set on HUVEC (setting [1]) was 0.512 µM. Besides, the “CYP3A4 Inhibition (compared to intracozanole at 1 μm)” value on CYP3A4 is given as “No inhibition”.
Take `CCC(C)n1ncn(-c2ccc(N3CCN(c4ccc(OC[C@@H]5COC(c6ccc(Cl)cc6Cl)O5)cc4)CC3)cc2)c1=O` (stereo partly drawn) [Compound 262, 1-sec-butyl-4-(4-(4-(4-(((4R)-2-(2,4-dichlorophenyl)-1,3-dioxolan-4-yl)methoxy)phenyl)piperazin-1-yl)phenyl)-1H-1,2,4-triazol-5(4H)-one]: in the data set with HUVEC (setting [1]), the IC50 was 0.328 µM. At CYP3A4, the “CYP3A4 Inhibition (compared to intracozanole at 1 μm)” value is on record as “No inhibition”.
On to `CCC(C)n1ncn(-c2ccc(N3CCN(c4ccc(OC[C@@H]5CO[C@@](CN6CCOCC6)(c6ccc(Cl)cc6Cl)O5)cc4)CC3)cc2)c1=O` (stereo partly drawn) [Compound 263, 1-(sec-butyl)-4-(4-(4-(4-(((2S,4R)-2-(2,4-dichlorophenyl)-2-(morpholinomethyl)-1,3-dioxolan-4-yl)methoxy)phenyl)piperazin-1-yl)phenyl)-1H-1,2,4-triazol-5(4H)-one], for which the IC50 with HUVEC (setting [1]) was 1.18 µM. For the same compound, the “CYP3A4 Inhibition (compared to intracozanole at 1 μm)” value at CYP3A4 stood at 0.20.
Regarding `CCC(C)n1ncn(-c2ccc(N3CCN(c4ccc(OC[C@@H]5CO[C@@](CN(C)C)(c6ccc(Cl)cc6Cl)O5)cc4)CC3)cc2)c1=O` (stereo partly drawn) [Compound 264, 1-(sec-butyl)-4-(4-(4-(4-(((2S,4R)-2-(2,4-dichlorophenyl)-2-((dimethylamino)methyl)-1,3-dioxolan-4-yl)methoxy)phenyl)piperazin-1-yl)phenyl)-1H-1,2,4-triazol-5(4H)-one], the IC50 in the data set with HUVEC (setting [1]) was found to be 1.4 µM. Also, the “CYP3A4 Inhibition (compared to intracozanole at 1 μm)” value at CYP3A4 is reported as “No inhibition”.
